In patent US8853222B2, “Treatment of herpes virus related diseases” (priority 2008, dated 2014):
“Also recorded” adds a separate entry of the source. Like-named read-outs stand apart in the source and are kept apart here.

Legend:
[1] = oral, maximum dose of 800 mg 5 times per day, most patients; cited from earlier work
[2] = cited from earlier work
[3] = Aseptic meningio-encephalitis subject treated with much higher doses; type: in vivo, human; conditions: much higher doses than '114
Source text: While the treatment of autoimmune disease using high levels of the anti-herpetic drugs taught in patent '114 provided noticeable improvements in a patient, signs or symptoms lingered even with ongoing treatment. Knowing the warning of the anti-herpetic drug labels that were on the market against using higher doses, increasing the dose even further was definitely contraindicated. However, the inventor was confronted with a problem of a subject presenting with extremely painful migraine type headache, which was diagnosed to be aseptic (not bacterial) meningio-encephalitis. […] The inventor also discovered that by using the much higher doses of famciclovir than previously taught in '114, the need to titrate a subject to tolerance of the drug could be avoided, that is the higher doses were effective at ameliorating the signs or symptoms of the disease without the accompanying pain of starting at a low dose and increasing it to a therapeutically effective level, as experienced with the doses of '114. While not wishing to be bound by a particular theory, it is thought that by regularly administering the higher levels the drug, a subject avoids a fluctuating blood level that can add to the irritation of already irritated nerves by major influxes of drug at a high level after having been at a lower level in the subject. […]

HSV-II = experiment: Suppression of vesicle formation, prodrome and viral shedding in person with ongoing HSV-II infection; type: in vivo, human
Source text: The inventor in this application is aware of the prior art teaching of U.S. Pat. No. 5,559,114 (“'114”) and International Application No. PCT/US95/16207 (“16207”) that describe the treatment of certain autoimmune diseases using higher than FDA-approved amounts of certain 2-amino purine derivatives. According to the teachings of the '114 patent and the 16207 application, one compound useful was acyclovir (or its precursor valacyclovir) at a level of 20 to 50 g per day for a 100 kg subject (or 5-10 g of valacyclovir). Another compound was famciclovir (the precursor of penciclovir) at about 4-10 g per day for a 100 kg subject ([…]). In following the treatment regime so taught for a subject having HSV-II infection and with the drug used to suppress autoimmune disease signs or symptoms, the inventor of the present invention observed that although the signs or symptoms of the subject's autoimmune disease improved, the subject continued to experience discomfort even if the high dose regimen of famciclovir described in the '114 patent was followed for a number of years. In addition, the subject continued to have prodrome episodes, vesicle outbreaks, and viral shedding. The prodrome is the sensation of tingling, pain or both in an area where the herpetic vesicles will appear within 24 to 48 hours. This is a very reliable signal that vesicles will appear on schedule. Vesicles are blisters or ulcers that appear on the skin or various mucous membranes as a result of the virus's replication process destroying cells that it has invaded. Viral shedding means that the virus is active on the skin, even though there is no prodrome or vesicle formation, and can be transmitted to another subject through skin contact, kissing, sexual intercourse, or oral sex.
This inventor interprets this to mean that viral shedding has been reduced dramatically, at least 90%. It is probably that viral shedding has been stopped completely. […]

[4] = Renal function by creatinine clearance in one patient; type: in vivo, human; conditions: from ~29 mL/min before
Source text: This treatment is useful, not only in stopping the progression of the diseases, but in returning more of organ function previously lost. Text books claim that organ function lost to these diseases can never be recovered, but this treatment has succeeded in recovering nearly all lost organ function. One of the diseases for which a large return of function appears achievable is progressive loss of renal function by unknown cause, but suspected to be autoimmune disease related. A clinical laboratory measure of kidney function is creatinine clearance. Creatinine is the metabolic product formed from creatine when food is converted to energy. Creatinine is produced at a steady state and is affected very little by diet or normal physical activities. When a subject's kidneys are damaged and/or cannot function normally, the amount of creatinine excreted in the subject's urine decreases while its level in the blood increases. Thus, the blood level of creatinine indicates how well the kidneys are working A higher than normal blood level of creatinine usually means the kidneys are not functioning properly. […] As the measured kidney function improves a parallel process occurs in other affected tissues or organs, with a diminution of the visible inflammation, swelling, pain, grinding and clicks in the afflicted articular joints. […]

[5] = cited from earlier work; remark: listed apart in the source

SMILES: Nc1nc2c(ncn2COCCO)c(=O)[nH]1 [acyclovir, 2-amino-1,9-dihydro-9-[(2-hydroxyethoxy)methyl]-6H-purin-6-one]
- blood level [1]: about 1.61 μg/mL
- effect on pain, muscle spasms, joint tenderness and butterfly rash ([2]; lupus patient, between 40 and 50 g per day): controlled pain, muscle spasms, joint tenderness and the butterfly rash

SMILES: CC(=O)OCC(CCn1cnc2cnc(N)nc21)COC(C)=O [famciclovir, 2-[2-(2-amino-9H-purin-9-yl)ethyl]-1,3-propanediol diacetate]
- signs or symptoms of the encephalitis [3]: alleviated
- viral shedding reduced (HSV-II; 300 mg/kg/day, inventor's interpretation from suppressed sensations): at least 90%
- prodrome and vesicle outbreak (HSV-II; 10-12 g per day ('114 dose level)): continued to experience prodrome and vesicle outbreak
- vesicle formation (HSV-II; ongoing dosage of 300 mg/kg/day, 300 mg/kg/day): no new vesicles form; also recorded: total suppression
- effect on pain, muscle spasms, joint tenderness and butterfly rash ([2]; 10-12 g per day): same effect
- creatinine clearance ([4]; doses of '114, same patient): ~89 mL/min
- creatinine clearance ([4]; very high doses, one patient): more than 140 mL/min
- oral bioavailability ([5]; in vivo, po): 77±8%

SMILES: CC(C)[C@H](N)C(=O)OCCOCn1cnc2c(=O)[nH]c(N)nc21 [valacyclovir, L-valine, 2-[(2-amino-1,6-dihydro-6-oxo-9H-purin-9-yl)methoxy]ethyl ester]
- oral bioavailability ([5]; oral): 55±9%
